According to patent publication EP4410314A1, “COMBINATION THERAPY COMPRISING ANTI-CD22 ANTIBODY-DRUG CONJUGATE AND IRAK1 INHIBITOR” (ADC Therapeutics SA, priority 2023, dated 2024):

Tests used:
Ramos cells = assay: DNA interstrand crosslinks, single cell gel electrophoresis (Comet) assay, Ramos; assay type: cell-based, human; details: 2-hour exposure
Protocol: (§1) Quantification of in vitro DNA interstrand crosslinks (ICLs) was performed using the single cell gel electrophoresis (Comet) assay.
(§2) DNA ICLs were measured using a modification of the single-cell gel electrophoresis (Comet) assay, and crosslinking was expressed as the percentage decrease in Olive tail moment (OTM) versus control irradiated cells. […] Immediately after the drug incubation period, a low level of ICLs (3%) was observed, which increased over time to near peak levels (≈50%) at 12 hours and persisted up to 48 hours. […] In this cell line, SG3199 produced a high level of ICL (≈50%), similar to that observed in the Ramos cell line.

KARPAS-299 [1] = assay: DNA interstrand crosslinks, single cell gel electrophoresis (Comet) assay, KARPAS-299; assay type: cell-based, human; details: KARPAS-299 (CD22-negative), over 48 hours following a 2-hour treatment
Protocol: as §1, §2

Daudi = assay: In vitro cytotoxicity, Daudi; assay type: cell-based, human; details: Daudi (BL), CD22-positive; mean ± SEM
NAMALWA = assay: In vitro cytotoxicity, NAMALWA; assay type: cell-based, human; details: NAMALWA (BL), CD22-positive; mean ± SEM
Ramos = assay: In vitro cytotoxicity, Ramos; assay type: cell-based, human; details: Ramos (BL), CD22-positive; mean ± SEM
DO HH-2 = assay: In vitro cytotoxicity, DO HH-2; assay type: cell-based, human; details: DO HH-2 (FL), CD22-positive; mean ± SEM
GRANTA-519 = assay: In vitro cytotoxicity, GRANTA-519; assay type: cell-based, human; details: GRANTA-519 (MCL), CD22-positive; mean ± SEM
MEC-2 = assay: In vitro cytotoxicity, MEC-2; assay type: cell-based, human; details: MEC-2 (CLL), CD22-positive; mean ± SEM
NALM-6 = assay: In vitro cytotoxicity, NALM-6; assay type: cell-based, human; details: NALM-6 (B-ALL), CD22-positive; mean ± SEM
REH = assay: In vitro cytotoxicity, REH; assay type: cell-based, human; details: REH (B-ALL), CD22-positive; mean ± SEM
SEM cells = assay: In vitro cytotoxicity, SEM; assay type: cell-based, human; details: SEM (B-ALL), CD22-positive; mean ± SEM
KM-H2 = assay: In vitro cytotoxicity, KM-H2; assay type: cell-based, human; details: KM-H2 (HL), CD22-negative; mean ± SEM
SUP-T1 = assay: In vitro cytotoxicity, SUP-T1; assay type: cell-based, human; details: SUP-T1 (T-LL), CD22-negative; mean ± SEM
KARPAS-299 [2] = assay: In vitro cytotoxicity, KARPAS-299; assay type: cell-based, human; details: KARPAS-299 (ALCL), CD22-negative; mean ± SEM
MCL = assay: In vitro cytotoxic activity, lymphoma cell line panel: MCL; assay type: cell-based, human; details: 10 cell lines, read-out: Median IC50
MZL = assay: In vitro cytotoxic activity, lymphoma cell line panel: MZL; assay type: cell-based, human; details: 6 cell lines, read-out: Median IC50
ABC-DLBCL = assay: In vitro cytotoxic activity, lymphoma cell line panel: ABC-DLBCL; assay type: cell-based, human; details: 6 cell lines, read-out: Median IC50
GCB-DLBCL = assay: In vitro cytotoxic activity, lymphoma cell line panel: GCB-DLBCL; assay type: cell-based, human; details: 20 cell lines, read-out: Median IC50
CLL = assay: In vitro cytotoxic activity, lymphoma cell line panel: CLL; assay type: cell-based, human; details: 2 cell lines, read-out: Median IC50
PMBCL = assay: In vitro cytotoxic activity, lymphoma cell line panel: PMBCL; assay type: cell-based, human; details: 1 cell line, read-out: Median IC50
HL = assay: In vitro cytotoxic activity, lymphoma cell line panel: HL; assay type: cell-based, human; details: 3 cell lines, read-out: Median IC50
T-cell lymphomas = assay: In vitro cytotoxic activity, lymphoma cell line panel: T-cell lymphomas; assay type: cell-based, human; details: 9 cell lines, read-out: Median IC50
ALCL = assay: In vitro cytotoxic activity, lymphoma cell line panel: ALCL; assay type: cell-based, human; details: 5 cell lines, read-out: Median IC50
CTCL = assay: In vitro cytotoxic activity, lymphoma cell line panel: CTCL; assay type: cell-based, human; details: 3 cell lines, read-out: Median IC50
PTCL-NOS = assay: In vitro cytotoxic activity, lymphoma cell line panel: PTCL-NOS; assay type: cell-based, human; details: 1 cell line, read-out: Median IC50
[3] = tested on: CD22-negative KARPAS-299 cells; assay: Bystander killing by conditioned medium transfer; assay type: cell-based, human; details: for percentage survival of KARPAS-299 cells: 96 hours incubation
Protocol: The ADCT-602-conditioned medium elicited a bystander effect after 1 day of pretreatment, as shown by a decrease in the percentage survival in the conditioned medium-treated KARPAS-299 cells, compared with the nonconditioned medium (97% to 78%, P = .001). The bystander effect increased after 2 to 3 days of preincubation in Ramos cells, as shown by a further decrease in the percentage of cell survival compared with the nonconditioned medium (66% and 62%, P < .0001).

[4] = tested on: CD22-expressing Ramos cells; assay: Cell surface binding, internalization and LAMP-1 colocalization; assay type: cell-based, human
Ramos xenograft = assay: SC Ramos xenograft; assay type: in vivo, mice
Excerpt: (§3) Ramos, WSU-DLCL2, and KARPAS-299 xenografts were established in 8- to 10-week-old female Fox Chase mice with severe combined immunodeficiency (Charles River Laboratories) by implanting 10^7 cells subcutaneously (SC) into their flanks. When group mean tumor volumes reached approximately 116 to 132 mm^3, mice were randomly allocated into groups to receive the test agent or vehicle. Each animal was euthanized when its tumor reached the end point volume or at the study end. The time to end point (TTE) for analysis was calculated for each mouse by the following equation: TTE (days) = ([log10(end point volume−intercept^(*)]/slope^(*)) [formula] where the * indicates the slope of the line obtained by linear regression of a log-transformed tumor growth data set.
(§4) The log-rank test was used to analyze the significance of differences in TTE between the 2 groups. For the disseminated xenografts model, 10^7 REH cells were inoculated intravenously (IV) into 5- to 8-week-old female NOG mice (Taconic Biosciences). Test compounds were administered IV 4 days after tumor cell inoculation. Individual mice were euthanized, and an autopsy was performed when hind leg paralysis (a sign of leukemia development) occurred and/or the body weight decreased ≥20%. The study was terminated on day 62. The log-rank test was used to determine the significance of the differences in overall survival.

WSU-DLCL2 xenograft = assay: SC WSU-DLCL2 xenograft model; assay type: in vivo, mice
Excerpt: as §3, §4

REH cells = assay: Disseminated B-ALL-derived xenograft model (REH); assay type: in vivo, mice
Protocol: as §4

KARPAS-299 xenograft = assay: SC KARPAS-299 xenograft model (CD22-negative); assay type: in vivo, mice; details: single 1 mg/kg dose; end of the study (day 29)
Excerpt: as §3, §4

B cells = assay: B-cell depletion from circulation; assay type: in vivo; details: cynomolgus monkeys, after one ADCT-602 dose
[5] = tested on: Ramos, TMD8, and SU-DHL-4 cell lines; assay: In vitro cytotoxicity following pretreatment with chidamide; assay type: cell-based; details: pretreatment with chidamide (0.25 or 0.5 µM) for 7 days, then ADC for 5 days
Protocol: Chidamide (Selleckchem) was dissolved in dimethyl sulfoxide (DMSO) according to the manufacturer's instructions. Cells were treated with chidamide (0.25 or 0.5 µM) for 7 days at 37°C in a 5% carbon dioxide-gassed, humidified incubator. On day 3, cells were centrifuged, and fresh medium containing the corresponding concentrations of chidamide was added. The control group was treated with equal volumes of DMSO.
Cell viability was measured with the CellTiter 96 Aqueous One Solution Cell Proliferation Assay (Promega). Data were normalized to untreated control cells. The IC50 values were determined using GraphPad software (GraphPad). The mean and standard errors of 3 independent IC50 values were determined.

B-cell lymphomas = details: read-out: Median IC50, 48 cell lines
[6] = single dose 1 mg/kg, end of the study (day 60)
[7] = single dose 3 mg/kg, end of the study (day 59)

Substance: ADCT-602: novel ADC targeting CD22 that consists of humanized monoclonal antibody hLL2-C220, sitespecifically conjugated to the pyrrolobenzodiazepine (PBD) dimer-based payload tesirine
- DNA ICLs, percentage decrease in Olive tail moment (OTM) versus control irradiated cells (Ramos cells; immediately after the drug incubation period): 3%
- DNA ICLs, percentage decrease in Olive tail moment (OTM) versus control irradiated cells (Ramos cells; peak / near peak level at 12 hours): ≈ 50%
- DNA ICLs, percentage decrease in Olive tail moment (OTM) versus control irradiated cells (KARPAS-299 [1]): ≈ 15%
- IC50 (Daudi): 0.07 ± 0.021 nM
- IC50 (NAMALWA): 2.27 ± 0.052 nM
- IC50 (Ramos): 0.06 ± 0.021 nM
- IC50 (DO HH-2): 0.06 ± 0.009 nM
- IC50 (GRANTA-519): 0.02 ± 0.0005 nM
- IC50 (MEC-2): 0.18 ± 0.05 nM
- IC50 (NALM-6): 0.11 ± 0.018 nM
- IC50 (REH): 0.05 ± 0.006 nM
- IC50 (SEM cells): 0.52 ± 0.08 nM
- IC50 (KM-H2): 11.4 ± 1.11 nM
- IC50 (SUP-T1): 9.34 ± 1.02 nM
- IC50 (KARPAS-299 [2]): 51.7 ± 3.86 nM
- IC50 (MCL): 0.375 nM
- IC50 (MZL): 0.0625 nM
- IC50 (ABC-DLBCL): 0.395 nM
- IC50 (GCB-DLBCL): 0.1 nM
- IC50 (CLL): 0.23 nM
- IC50 (PMBCL): 0.035 nM
- IC50 (HL): 4.5 nM
- IC50 (T-cell lymphomas): 1.85 nM
- IC50 (ALCL): 2.85 nM
- IC50 (CTCL): 1.75 nM
- IC50 (PTCL-NOS): 0.7 nM
- change in percentage of cell survival compared with the nonconditioned medium ([3]; conditioned medium from ADCT-602-treated, CD22-negative NCI-N87 cells): no significant change
- percentage survival of KARPAS-299 cells ([3]; conditioned medium from Ramos cells treated with ADCT-602 for 1 day): 78%
- percentage survival of KARPAS-299 cells ([3]; conditioned medium from Ramos cells treated with ADCT-602 for 2 days): 66%
- percentage survival of KARPAS-299 cells ([3]; conditioned medium from Ramos cells treated with ADCT-602 for 3 days): 62%
- percentage survival of KARPAS-299 cells ([3]; nonconditioned medium, comparator for 1 day pretreatment): 97%
- internalization and trafficking to lysosomes ([4]; 37°C, 1- and 2-hour time points): cellular internalization and colocalization of ADCT-602 with LAMP-1
- residual ADC staining ([4]; 24 hours): no residual ADC staining
- cell surface (membrane) binding ([4]; T 0 hours): prominent cell surface binding
- CRs (Ramos xenograft; [6]): 10/10
- tumor-free survivors (Ramos xenograft; [6]): 9/10
- antitumor activity compared with the vehicle and the isotype control ADC (Ramos xenograft; single dose at 0.3 and 1 mg/kg): specific and dose-dependent antitumor activity
- CRs (WSU-DLCL2 xenograft; [7]): 7/10
- partial responders (WSU-DLCL2 xenograft; [7]): 3/10
- tumor-free survivors (WSU-DLCL2 xenograft; [7]): 2/10
- antitumor activity compared with the vehicle and the isotype control ADC (WSU-DLCL2 xenograft; single dose at 1 and 3 mg/kg): dose-dependent antitumor activity
- survival time, single dose versus equivalent fractionated dose (REH cells; single 1.3 mg/kg versus 0.45 mg/kg, every 4 days, for 3 times [Q4D×3]): comparable survival time
- survival compared with the vehicle and the isotype control ADC (REH cells; single dose at 0.45 mg/kg and 1.3 mg/kg IV): dose-dependent extension of survival
- antitumor activity compared with the vehicle group (KARPAS-299 xenograft): no significant antitumor activity
- depletion of B cells from circulation (B cells): efficiently depleted
- improvement of ADCT-602 IC50 compared with cells pretreated with DMSO [5]: up to 2.5 fold
- IC50 (B-cell lymphomas): 0.2 nM
